# Source: patent publication US20240399142A1, “Methods Of Using Alternating Electric Fields And Checkpoint Inhibitors” (NOVOCURE GMBH, priority 2023, published 2024)
# Assay: LUNAR study safety: adverse events per CTCAE version 4.03, safety population
# Format: in vivo, human
# Conditions: for Anxiety / Confusional state / Mental status changes: psychiatric disorders; for Acute kidney injury / Urinary retention: renal and urinary disorders; for Acute respiratory failure / Atelectasis / Bronchial obstruction / Bronchopleural fistula / Chronic obstructive pulmonary disease / Cough / Dyspnoea / Esophago-bronchial fistula / Hemoptysis / Hypoxia / Interstitial lung disease / Pleural effusion / Pneumonia aspiration / Pneumonitis / Pulmonary embolism / Pulmonary hemorrhage / Respiratory failure: thoracic, and mediastinal disorders, respiratory; for Alopecia / Dermatitis exfoliative / Pruritus / Rash / Rash erythematous / Rash maculopapular / Skin erosion / Skin reaction / Skin toxicity: skin and subcutaneous tissue disorders; for Deep vein thrombosis / Embolism / Hypertension / Jugular vein thrombosis / Peripheral arterial occlusive disease / Vena cava embolism: vascular disorders
# [1] = Grade 4, nervous system disorders
# [2] = Grade 5, nervous system disorders
# Procedure: Safety and treatment data were compiled from all patients who received any study therapy and were analyzed according to the actual treatment received. Analyses were performed using SAS software, version 9.4 (SAS Institute).
structure (smiles),measurement,setting,value
"CC(=O)O[C@@]12CO[C@@H]1C[C@H](O)[C@@]1(C)C(=O)[C@H](O)C3=C(C)[C@@H](OC(=O)[C@H](O)[C@@H](NC(=O)OC(C)(C)C)c4ccccc4)C[C@@](O)([C@@H](OC(=O)c4ccccc4)[C@H]21)C3(C)C [Docetaxel, docetaxel]",Metastases to bone,Grade 4,0 no. (%)
same,Metastases to central nervous system,Grade 4,0 no. (%)
same,Metastases to meninges,Grade 4,0 no. (%)
same,Metastases to skin,Grade 4,0 no. (%)
same,Mouth ulceration,Grade 4,0 no. (%)
same,Mucosal inflammation,Grade 4,0 no. (%)
same,Multiple organ dysfunction syndrome,Grade 4,0 no. (%)
same,Muscular weakness,Grade 4,0 no. (%)
same,Myalgia,Grade 4,0 no. (%)
same,Myocardial infarction,Grade 4,0 no. (%)
same,Nausea,Grade 4,0 no. (%)
same,Neck pain,Grade 4,0 no. (%)
same,Neuropathy peripheral,Grade 4,0 no. (%)
same,Neutropenia,Grade 4,10 (14.7) no. (%)
same,Neutrophil count decreased,Grade 4,4 (5.9) no. (%)
same,Non-cardiac chest pain,Grade 4,0 no. (%)
same,Oedema peripheral,Grade 4,0 no. (%)
same,Oral candidiasis,Grade 4,0 no. (%)
same,Pancreatic failure,Grade 4,0 no. (%)
same,Pancreatitis,Grade 4,0 no. (%)
same,Pericardial effusion,Grade 4,0 no. (%)
same,Peripheral sensory,Grade 4,0 no. (%)
same,Platelet count decreased,Grade 4,0 no. (%)
same,Pneumonia,Grade 4,0 no. (%)
same,Pneumonia pseudomonal,Grade 4,0 no. (%)
same,Pneumonia staphylococcal,Grade 4,0 no. (%)
same,Pyelonephritis,Grade 4,0 no. (%)
same,Pyopneumothorax,Grade 4,0 no. (%)
same,Pyrexia,Grade 4,0 no. (%)
same,Refeeding syndrome,Grade 4,0 no. (%)
same,Respiratory tract infection,Grade 4,0 no. (%)
same,Right ventricular failure,Grade 4,0 no. (%)
same,Sepsis,Grade 4,1 (1.5) no. (%)
same,Septic shock,Grade 4,0 no. (%)
same,Skin infection,Grade 4,0 no. (%)
same,Stomatitis,Grade 4,0 no. (%)
same,Subileus,Grade 4,0 no. (%)
same,Thrombocytopenia,Grade 4,1 (1.5) no. (%)
same,Thyroiditis subacute,Grade 4,0 no. (%)
same,Tumor pain,Grade 4,0 no. (%)
same,Upper respiratory tract infection,Grade 4,0 no. (%)
same,Urinary tract infection,Grade 4,0 no. (%)
same,Urosepsis,Grade 4,0 no. (%)
same,Vomiting,Grade 4,0 no. (%)
same,Weight decreased,Grade 4,0 no. (%)
same,White blood cell count decreased,Grade 4,2 (2.9) no. (%)
same,Brain oedema,[1],1 (1.5) no. (%)
same,Cauda equina syndrome,[1],0 no. (%)
same,Dysarthria,[1],0 no. (%)
same,Embolic stroke,[1],0 no. (%)
same,Hemiparesis,[1],0 no. (%)
same,Motor dysfunction,[1],0 no. (%)
same,Nervous system disorder,[1],0 no. (%)
same,Neurologic neglect syndrome,[1],0 no. (%)
same,Neurotoxicity,[1],0 no. (%)
same,Peripheral sensorimotor neuropathy,[1],0 no. (%)
same,Quadriparesis,[1],0 no. (%)
same,Seizure,[1],0 no. (%)
same,Syncope,[1],0 no. (%)
same,Vocal cord paralysis,[1],0 no. (%)
same,Anxiety,Grade 4,0 no. (%)
same,Confusional state,Grade 4,0 no. (%)
same,Mental status changes,Grade 4,1 (1.5) no. (%)
same,Acute kidney injury,Grade 4,0 no. (%)
same,Urinary retention,Grade 4,0 no. (%)
same,Acute respiratory failure,Grade 4,0 no. (%)
same,Atelectasis,Grade 4,0 no. (%)
same,Bronchial obstruction,Grade 4,2 (2.9) no. (%)
same,Bronchopleural fistula,Grade 4,0 no. (%)
same,Chronic obstructive pulmonary disease,Grade 4,0 no. (%)
same,Cough,Grade 4,0 no. (%)
same,Dyspnoea,Grade 4,1 (1.5) no. (%)
same,Esophago-bronchial fistula,Grade 4,0 no. (%)
same,Hemoptysis,Grade 4,0 no. (%)
same,Hypoxia,Grade 4,0 no. (%)
same,Interstitial lung disease,Grade 4,0 no. (%)
same,Pleural effusion,Grade 4,0 no. (%)
same,Pneumonia aspiration,Grade 4,0 no. (%)
same,Pneumonitis,Grade 4,0 no. (%)
same,Pulmonary embolism,Grade 4,0 no. (%)
same,Pulmonary hemorrhage,Grade 4,0 no. (%)
same,Respiratory failure,Grade 4,0 no. (%)
same,Alopecia,Grade 4,0 no. (%)
same,Dermatitis exfoliative,Grade 4,0 no. (%)
same,Pruritus,Grade 4,0 no. (%)
same,Rash,Grade 4,0 no. (%)
same,Rash erythematous,Grade 4,0 no. (%)
same,Rash maculopapular,Grade 4,0 no. (%)
same,Skin erosion,Grade 4,0 no. (%)
same,Skin reaction,Grade 4,0 no. (%)
same,Skin toxicity,Grade 4,0 no. (%)
same,Deep vein thrombosis,Grade 4,0 no. (%)
same,Embolism,Grade 4,0 no. (%)
same,Hypertension,Grade 4,0 no. (%)
same,Jugular vein thrombosis,Grade 4,1 (1.5) no. (%)
same,Peripheral arterial occlusive disease,Grade 4,0 no. (%)
same,Vena cava embolism,Grade 4,0 no. (%)
same,Acute myocardial infarction,Grade 5,0 no. (%)
same,Alanine aminotransferase increased,Grade 5,0 no. (%)
same,Anemia,Grade 5,0 no. (%)
same,Anemia macrocytic,Grade 5,0 no. (%)
same,Any adverse event,Grade 5,4 (5.9) no. (%)
same,Arthralgia,Grade 5,0 no. (%)
same,Ascites,Grade 5,0 no. (%)
same,Aspergillus infection,Grade 5,0 no. (%)
same,Asthenia,Grade 5,0 no. (%)
same,Atrial tachycardia,Grade 5,0 no. (%)
same,Autoimmune colitis,Grade 5,0 no. (%)
same,Back pain,Grade 5,0 no. (%)
same,Blood bilirubin increased,Grade 5,0 no. (%)
same,Bone pain,Grade 5,0 no. (%)
same,Bronchiolitis,Grade 5,0 no. (%)
same,Bronchitis,Grade 5,0 no. (%)
same,C-reactive protein increased,Grade 5,0 no. (%)
same,COVID-19 pneumonia,Grade 5,0 no. (%)
same,Cancer pain,Grade 5,0 no. (%)
same,Cardiac failure congestive,Grade 5,0 no. (%)
same,Cardiac tamponade,Grade 5,0 no. (%)
same,Cardiac ventricular thrombosis,Grade 5,0 no. (%)
same,Cataract,Grade 5,0 no. (%)
same,Chest pain,Grade 5,0 no. (%)
same,Cholangitis,Grade 5,0 no. (%)
same,Cholecystitis,Grade 5,0 no. (%)
same,Cholelithiasis,Grade 5,0 no. (%)
same,Clostridium bacteremia,Grade 5,0 no. (%)
same,Coronary artery disease,Grade 5,0 no. (%)
same,Decreased appetite,Grade 5,0 no. (%)
same,Dehydration,Grade 5,0 no. (%)
same,Diarrhea,Grade 5,0 no. (%)
same,Diverticulitis,Grade 5,0 no. (%)
same,Drug hypersensitivity,Grade 5,0 no. (%)
same,Encephalitis,Grade 5,0 no. (%)
same,Esophagitis,Grade 5,0 no. (%)
same,Euthanasia,Grade 5,1 (1.5) no. (%)
same,Fatigue,Grade 5,0 no. (%)
same,Febrile neutropenia,Grade 5,0 no. (%)
same,Femoral neck fracture,Grade 5,0 no. (%)
same,Forced expiratory volume decreased,Grade 5,0 no. (%)
same,Gastroenteritis norovirus,Grade 5,0 no. (%)
same,Gastroenteritis salmonella,Grade 5,0 no. (%)
same,General physical health deterioration,Grade 5,0 no. (%)
same,Hematochezia,Grade 5,0 no. (%)
same,Hepatic enzyme increased,Grade 5,0 no. (%)
same,Hip fracture,Grade 5,0 no. (%)
same,Hypercalcemia,Grade 5,0 no. (%)
same,Hyperglycemia,Grade 5,0 no. (%)
same,Hyperkalaemia,Grade 5,0 no. (%)
same,Hypertriglyceridaemia,Grade 5,0 no. (%)
same,Hypoalbuminemia,Grade 5,0 no. (%)
same,Hypocalcaemia,Grade 5,0 no. (%)
same,Hypokalemia,Grade 5,0 no. (%)
same,Hyponatremia,Grade 5,0 no. (%)
same,Ileus,Grade 5,0 no. (%)
same,Infection,Grade 5,0 no. (%)
same,Intestinal dilatation,Grade 5,0 no. (%)
same,Intestinal hemorrhage,Grade 5,0 no. (%)
same,Intestinal perforation,Grade 5,0 no. (%)
same,Large intestine perforation,Grade 5,0 no. (%)
same,Leukopenia,Grade 5,0 no. (%)
same,Liver disorder,Grade 5,0 no. (%)
same,Localized oedema,Grade 5,0 no. (%)
same,Lung abscess,Grade 5,0 no. (%)
same,Lymphocyte count decreased,Grade 5,0 no. (%)
same,Lymphopenia,Grade 5,0 no. (%)
same,Malignant ascites,Grade 5,0 no. (%)
same,Malignant pleural effusion,Grade 5,0 no. (%)
same,Malnutrition,Grade 5,0 no. (%)
same,Metastases to bone,Grade 5,0 no. (%)
same,Metastases to central nervous system,Grade 5,0 no. (%)
same,Metastases to meninges,Grade 5,0 no. (%)
same,Mouth ulceration,Grade 5,0 no. (%)
same,Mucosal inflammation,Grade 5,0 no. (%)
same,Multiple organ dysfunction syndrome,Grade 5,0 no. (%)
same,Muscular weakness,Grade 5,0 no. (%)
same,Myalgia,Grade 5,0 no. (%)
same,Myocardial infarction,Grade 5,0 no. (%)
same,Nausea,Grade 5,0 no. (%)
same,Neck pain,Grade 5,0 no. (%)
same,Neutropenia,Grade 5,0 no. (%)
same,Neutrophil count decreased,Grade 5,0 no. (%)
same,Non-cardiac chest pain,Grade 5,0 no. (%)
same,Oedema peripheral,Grade 5,0 no. (%)
same,Oral candidiasis,Grade 5,0 no. (%)
same,Pancreatic failure,Grade 5,0 no. (%)
same,Pancreatitis,Grade 5,0 no. (%)
same,Pericardial effusion,Grade 5,0 no. (%)
same,Peripheral sensory,Grade 5,0 no. (%)
same,Platelet count decreased,Grade 5,0 no. (%)
same,Pneumonia,Grade 5,0 no. (%)
same,Pneumonia pseudomonal,Grade 5,0 no. (%)
same,Pneumonia staphylococcal,Grade 5,0 no. (%)
same,Pyelonephritis,Grade 5,0 no. (%)
same,Pyopneumothorax,Grade 5,0 no. (%)
same,Pyrexia,Grade 5,0 no. (%)
same,Refeeding syndrome,Grade 5,0 no. (%)
same,Respiratory tract infection,Grade 5,0 no. (%)
same,Right ventricular failure,Grade 5,0 no. (%)
same,Sepsis,Grade 5,0 no. (%)
same,Septic shock,Grade 5,0 no. (%)
same,Skin infection,Grade 5,0 no. (%)
same,Stomatitis,Grade 5,0 no. (%)
same,Subileus,Grade 5,0 no. (%)
same,Thrombocytopenia,Grade 5,0 no. (%)
same,Thyroiditis subacute,Grade 5,0 no. (%)
same,Tumor pain,Grade 5,0 no. (%)
same,Upper respiratory tract infection,Grade 5,0 no. (%)
same,Urinary tract infection,Grade 5,0 no. (%)
same,Urosepsis,Grade 5,0 no. (%)
same,Vomiting,Grade 5,0 no. (%)
same,Weight decreased,Grade 5,0 no. (%)
same,White blood cell count decreased,Grade 5,0 no. (%)
same,Brain oedema,[2],0 no. (%)
same,Cauda equina syndrome,[2],0 no. (%)
same,Dysarthria,[2],0 no. (%)
same,Hemiparesis,[2],0 no. (%)
same,Motor dysfunction,[2],0 no. (%)
same,Nervous system disorder,[2],0 no. (%)
same,Neurologic neglect syndrome,[2],0 no. (%)
same,Peripheral sensorimotor neuropathy,[2],0 no. (%)
same,Quadriparesis,[2],0 no. (%)
same,Seizure,[2],0 no. (%)
same,Syncope,[2],0 no. (%)
same,Vocal cord paralysis,[2],0 no. (%)
same,Anxiety,Grade 5,0 no. (%)
same,Confusional state,Grade 5,0 no. (%)
same,Mental status changes,Grade 5,0 no. (%)
same,Acute kidney injury,Grade 5,0 no. (%)
same,Urinary retention,Grade 5,0 no. (%)
same,Acute respiratory failure,Grade 5,2 (2.9) no. (%)
same,Atelectasis,Grade 5,0 no. (%)
same,Bronchial obstruction,Grade 5,0 no. (%)
same,Bronchopleural fistula,Grade 5,0 no. (%)
same,Chronic obstructive pulmonary disease,Grade 5,0 no. (%)
same,Cough,Grade 5,0 no. (%)
same,Dyspnoea,Grade 5,0 no. (%)
same,Esophago-bronchial fistula,Grade 5,0 no. (%)
same,Hemoptysis,Grade 5,0 no. (%)
same,Hypoxia,Grade 5,0 no. (%)
same,Interstitial lung disease,Grade 5,0 no. (%)
same,Pleural effusion,Grade 5,0 no. (%)
same,Pneumonia aspiration,Grade 5,0 no. (%)
same,Pneumonitis,Grade 5,0 no. (%)
same,Pulmonary embolism,Grade 5,0 no. (%)
same,Pulmonary hemorrhage,Grade 5,0 no. (%)
same,Respiratory failure,Grade 5,1 (1.5) no. (%)
same,Alopecia,Grade 5,0 no. (%)
same,Dermatitis exfoliative,Grade 5,0 no. (%)
same,Pruritus,Grade 5,0 no. (%)
same,Rash,Grade 5,0 no. (%)
same,Rash erythematous,Grade 5,0 no. (%)
same,Rash maculopapular,Grade 5,0 no. (%)
same,Skin erosion,Grade 5,0 no. (%)
same,Skin reaction,Grade 5,0 no. (%)
same,Skin toxicity,Grade 5,0 no. (%)
same,Deep vein thrombosis,Grade 5,0 no. (%)
same,Embolism,Grade 5,0 no. (%)
same,Hypertension,Grade 5,0 no. (%)
same,Jugular vein thrombosis,Grade 5,0 no. (%)
same,Peripheral arterial occlusive disease,Grade 5,0 no. (%)
same,Vena cava embolism,Grade 5,0 no. (%)
same,Anemia,Grade ≥3,8 (11.8) no. (%)
same,Any adverse event,Grade ≥3,43 (63.2) no. (%)
same,Neutropenia,Grade ≥3,11 (16.2) no. (%)
same,COVID-19 pneumonia,"human, in vivo",0 no. (%)
same,Herpes zoster,"human, in vivo",0 no. (%)
same,Adverse event leading to death,"human, in vivo, 75 mg/m2",4 (5.9) no. (%)
same,Adverse event leading to discontinuation,in vivo,1 (1.5) no. (%)
same,Serious adverse event,in vivo,28 (41.2) no. (%)
same,patients who discontinued therapy due to intolerable toxicity,in vivo,four
